From patent publication US12679801B2, “Amino lipid and preparation method and application thereof” (Shenzhen MagicRNA Biotechnology Co., Ltd., priority 2022, dated 2026)

Experiments:
BMDC primary cells [1] = test: Luc mRNA LNP transfection on BMDC primary cells (Embodiment 21, Table 9); format: cell-based, C57BL/6 mice; settings: 16 h, ONE-Glo Luciferase
Protocol: Preparation method: the same as that in Embodiment 17.
Animal preparation: 6-week-old female C57BL/6 mice with the body weight about 20 g were selected. A feeding environment was an SPF stage feeding room. Animal tests were strictly performed according to the guide of the national health institute and the animal ethics requirements.
(§1) Cell acquisition: C57BL/6 mice were killed through cervical dislocation, and were soaked for 5 min in 75% ethyl alcohol. Dissection was performed to obtain thigh and calf tibiae of the mice. Attached muscles were removed to expose sclerotin. Then, bone marrow in tibiae was blown out by using a 1 mL injector sucked with PBS. After the bone marrow was blown away, impurities were filtered away by a 50 μm filter screen. A red blood cell lysis buffer (3-4 mL) was added into an obtained filtrate. Then, after placement for 5 min, 800 g centrifugation was performed for 5 min to remove a supernatant. The obtained cells were placed into a 1640 culture medium (containing 10% fetal calf serum, 20 ng/mL GMCSF and 10 ng/mL IL4) to be resuspended, and were inoculated into a 6-well plate at an inoculation density of 100000 cells/ml culture medium. The materials were placed into a 37° C. cell incubator containing 5% CO2. Half liquid change was performed once every 2 days. Suspended cells and loose wall attached cells were collected on the seventh day, and were inoculated to a 96-well all-white ELISA plate at the inoculation density of 20000 cells per well, and the volume of a culture medium was 100 μL.
Cell transfection: lipid nanoparticles coated with luciferase mRNA were added into a 96-well white ELISA plate laid with primary cells. The adding volume of the mRNA lipid nanoparticles in each well was controlled to be 10 μL. Then, the materials were put into a 37° C. incubator containing 5% CO2 for 16 h.
Transfection efficiency detection: 20 μL of a substrate ONE-Glo™ Luciferase was added into each well of a 96-well all-white ELISA plate, and after 1 min, detection was performed by a multifunctional or multimode microplate reader.

BMDC primary cells [2] = test: Luc mRNA LNP transfection on BMDC primary cells (Embodiment 13, Table 3); format: cell-based, C57BL/6 mice; settings: 16 h, ONE-Glo Luciferase
Protocol: Preparation method: the same as that described in Embodiment 7.
Animal preparation: 6-week-old female C57BL/6 mice with the body weight about 20 g were selected. The feeding environment was an SPF stage feeding room. Animal tests were strictly performed according to the guide of the national health institute and the animal ethics requirements.
as §1, with “remove the” for “remove a”, “10 ng/ml” for “10 ng/mL”, “were” for “were inoculated to a 96-well all-white ELISA plate at the inoculation density of 20000 cells”
Cell transfection: lipid nanoparticles coated with luciferase mRNA were added into a 96-well all-white ELISA plate laid with primary cells. The adding volume of the mRNA lipid nanoparticles in each well was controlled to be 10 μL. Then, the materials were put into a 37° C. incubator containing 5% CO2 for 16 h.
Transfection efficiency detection: 20 μL of a substrate ONE-Glo™ Luciferase was added into each well of a 96-well all-white ELISA plate. After 1 min, detection was performed by a multifunctional or multimode microplate reader.

| SMILES | Luciferase luminescence intensity (BMDC primary cells [1]) | Luciferase luminescence intensity (BMDC primary cells [2]) [E+ 04] |
| --- | --- | --- |
| CCCCCCCCCCCCCC(COC(=O)C(CCCCC)CCCCCCCCC)OC(=O)CCCCN(C)C (stereo not shown) [E10C109A11] | 3.5E+04 | – |
| CCCCCCCCCCCCC(COC(=O)C(CCCCCCCC)CCCCCCCC)OC(=O)CCCN(C)C (stereo not shown) [E9C115A9] | 1.4E+05 | – |
| CCCCCCCCCCCCC(COC(=O)C(CCCCCCC)CCCCCCC)OC(=O)CCCN(C)C (stereo not shown) [E9C114A9] | 9.1E+04 | – |
| CCCCCCCCCCC(CCCC)C(=O)OCC(CCCCCCCC)OC(=O)CCCCN(C)C (stereo not shown) [E5C104A11] | 4.0E+04 | – |
| CCCCCCCCCCCC(COC(=O)C(CCCCCCCC)CCCCCCCC)OC(=O)CCCN(C)C (stereo not shown) [E8C115A9] | 6.0E+04 | – |
| CCCCCCCCCCCC(COC(=O)C(CCCCCCCC)CCCCCCCC)OC(=O)CCCCN(C)C (stereo not shown) [E8C115A11] | 1.9E+05 | – |
| CCCCCCCCCCCCCC(COC(=O)C(CCCCCCC)CCCCCCC)OC(=O)CCCCN(C)C (stereo not shown) [E10C114A11] | 7.6E+04 | – |
| CCCCCCCCCCCC(COC(=O)C(CCCCCCC)CCCCCCC)OC(=O)CCCN(C)C (stereo not shown) [E8C114A9] | 6.8E+04 | – |
| CCCCCCCCCCCC(COC(=O)C(CCCC)CCCCCCCCCC)OC(=O)CCCN(C)C (stereo not shown) [E8C104A9] | 3.7E+04 | – |
| CCCCCCCCCCCCCCC(COC(=O)C(CCCCCCCC)CCCCCCCC)OC(=O)CCCCN(C)C (stereo not shown) [E11C115A11] | 6.3E+04 | – |
| CCCCCCCCCCCCCCC(COC(=O)CC(CCCCCCC)CCCCCCC)OC(=O)CCCCN(C)C (stereo not shown) [E11C128A11] | 4.2E+04 | – |
| CCCCCCCCCCCCCCCCC(=O)OCC(CCCCCC(CC)CC)OC(=O)C1CCN(C)CC1 (stereo not shown) [E20C12A23] | – | 1.7 |
| CCCCCCCCCCC(COC(=O)C(CCCCCC)CCCCCCCC)OC(=O)CCCCN(C)C (stereo not shown) [E7C71A11] | – | 4.4 |
| CCCCCCCCCCCCCCCC(=O)OCC(OC(=O)CCCCN(C)C)C(CCCC)CCCCC (stereo not shown) [E21C11A11] | – | 4.7 |
| CCCCCCCCCCCCCCC(C)C(=O)OCC(CCCCCCCCCCC)OC(=O)CCCCN(C)C (stereo not shown) [E8C74A11] | – | 4.0 |
| CCCCCCCCCCCCCCCCC(=O)OCC(OC(=O)C(C)CCN(C)C)C(CCCC)CCCCC (stereo not shown) [E21C12A10] | – | 8.9 |
| CCCCCCCCCCCCCCC(=O)OCC(CCCCCC(CC)CC)OC(=O)C(C)CCN(C)C (stereo not shown) [E20C10A10] | – | 1.2 |
| CCCCCCCCCC(CCCCCCC)C(=O)OCC(CCCCCCC)OC(=O)CCCCN(C)C (stereo not shown) [E4C79A11] | – | 3.4 |
| CCCCCCCCCCCCCCCC(COC(=O)CCCCCCCCCC)OC(=O)CCCCN(C)C (stereo not shown) [E12C6A11] | – | 1.2 |
| CCCCCCCCCCCCCCC(=O)OCC(CCCCCC(CC)CC)OC(=O)CCCN(C)C (stereo not shown) [E20C10A9] | – | 4.8 |
| CCCCCCCCCCC(C)(C)C(=O)OCC(CCCCCC(CC)CC)OC(=O)CCCN(C)C (stereo not shown) [E20C66A9] | – | 5.9 |
| CCCCCCCCCCCCCCCC(=O)OCC(OC(=O)C(C)CCN(C)C)C(CCCC)CCCCC (stereo not shown) [E21C11A10] | – | 1.7 |
| CCCCCCCCCCCCC(COC(=O)C(CCC)CCCCCCCC)OC(=O)C(C)CCN(C)C (stereo not shown) [E9C62A10] | – | 4.3 |
| CCCCCCCCCC(CCCCCCC)C(=O)OCC(CCCCCCC)OC(=O)CCCCCN(C)C (stereo not shown) [E4C79A12] | – | 2.5 |
| CCCCCCCCCCCCCCCC(=O)OCC(CCCCCC(CC)CC)OC(=O)C1CCN(C)CC1 (stereo not shown) [E20C11A23] | – | 1.6 |

| SMILES | Luciferase luminescence intensity (BMDC primary cells [1]) | Luciferase luminescence intensity (BMDC primary cells [2]) [E+ 04] |
| --- | --- | --- |
| CCCCCCCCCCCCCCC(C)C(=O)OCC(CCCCCCCCCC)OC(=O)CCCN(C)C (stereo not shown) [E7C74A9] | – | 4.8 |
| CCCCCCCCCCC(COC(=O)C(CCCCCCC)CCCCCCCCC)OC(=O)CCCCCN(C)C (stereo not shown) [E7C79A12] | – | 3.5 |
| CCCCCCCCCCCCCCC(C)C(=O)OCC(CCCCCCCCC)OC(=O)CCCCN(C)C (stereo not shown) [E6C74A11] | – | 4.5 |
| CCCCCCCCCC(CCCCCCC)C(=O)OCC(CCCCCCC)OC(=O)CCCN(C)C (stereo not shown) [E4C79A9] | – | 2.2 |
| CCCCCCCCCC(COC(=O)C(CCCCCCC)CCCCCCCCC)OC(=O)C(C)CCN(C)C (stereo not shown) [E6C79A10] | – | 4.6 |
| CCCCCCCC/C=C/CCCCCCCC(=O)OCC(CCCCCCCC)OC(=O)C1CCN(C)CC1 (stereo not shown) [E5C82A23, 1-(Octadec-9-Enoyloxy) Decan-2-Yl 1-Methylpiperidine-4-Carboxylate] | – | 1.4 |
| CCCCCCCCCCCCCCC(C)C(=O)OCC(CCCCCCCCCC)OC(=O)CCCCN(C)C (stereo not shown) [E7C74A11] | – | 3.2 |
| CCCCCCCCCCCCCCCCCC(=O)OCC(OC(=O)CCCN(C)C)C(CCCC)CCCCC (stereo not shown) [E21C13A9] | – | 6.7 |
| CCCCCCCCCCCCC(COC(=O)C(CCCC)CCCCCC)OC(=O)C(C)CCN(C)C (stereo not shown) [E9C56A10] | – | 8.8 |
| CCCCCCCCCCCCCC(=O)OCC(CCCCCC(CC)CC)OC(=O)CCCCN(C)C (stereo not shown) [E20C9A11] | – | 4.0 |
| CCCCCCCCCCCCCCCC(COC(=O)C(C)CCCCCCCCCCCCCC)OC(=O)CCCCN(C)C (stereo not shown) [E12C74A11] | – | 1.1 |
| CCCCCCCCCCCCCCCCCCC(=O)OCC(OC(=O)CCCN(C)C)C(CCCC)CCCCC (stereo not shown) [E21C14A9] | – | 4.5 |
| CCCCCCCCCCCCCCCCC(=O)OCC(CCCCCC(CC)CC)OC(=O)C(C)CCN(C)C (stereo not shown) [E20C12A10] | – | 9.6 |
| CCCCCCCCCCCCCCC(COC(=O)C(CCC)CCCCCCCC)OC(=O)CCCCN(C)C (stereo not shown) [E11C62A11] | – | 4.1 |
| CCCCCCCCCCCC(COC(=O)C(CCCCCCC)CCCCCCCCC)OC(=O)CCCN(C)C (stereo not shown) [E8C79A9] | – | 3.6 |
| CCCCCCCCCCCCCC(=O)OCC(CCCCCC(CC)CC)OC(=O)C(C)CCN(C)C (stereo not shown) [E20C9A10] | – | 2.7 |
| CCCCCCCCCC(CCCCCCC)C(=O)OCC(CCCCCC)OC(=O)C(C)CCN(C)C (stereo not shown) [E3C79A10] | – | 7.4 |
| CCCCCCCCCCCCCCC(C)C(=O)OCC(CCCCCCCCCCC)OC(=O)CCCN(C)C (stereo not shown) [E8C74A9] | – | 8.5 |
| CCCCCCCCCC(COC(=O)C(CCCCCCC)CCCCCCCCC)OC(=O)CCCCCN(C)C (stereo not shown) [E6C79A12] | – | 2.5 |
| CCCCCCCCCCCCC(COC(=O)C(C)(C)CCCCCCCCCC)OC(=O)CCCN(C)C (stereo not shown) [E9C66A9] | – | 2.3 |
| CCCCCCCCC(COC(=O)C(CCCCCC)CCCCCCCC)OC(=O)CCCCN(C)C (stereo not shown) [E5C71A11] | – | 4.6 |
| CCCCCCCCCCCCCCC(C)C(=O)OCC(CCCCCCCCCCCCC)OC(=O)C1CCN(C)CC1 (stereo not shown) [E10C74A23] | – | 1.0 |
| CCCCCCCCC(CCCCCC)C(=O)OCC(CCCCCC(CC)CC)OC(=O)CCCN(C)C (stereo not shown) [E20C71A9] | – | 6.6 |
| CCCCCCCCCCCCCCC(COC(=O)CCCCCCCCCCC)OC(=O)CCCN(C)C (stereo not shown) [E11C7A9, 2-((4-(Dimethylamino)Butanoyl)Oxy)Hexadecyl Dodecanoate] | – | 1.5 |
